Test results published in a melting point compilation (Tetko et al.; mined from patent text by program, amines drawn as free bases though some values may be those of a salt).

Compound | melting point [°C]
CC(C)(C)OC(=O)N1CCn2c(c(I)c(C#N)c2-c2ccccc2)C1 | 174 to 178
COC(=O)c1sc2ccc(OCc3cccnc3)cc2c1Cl | 126 to 128
CCCCN1Cc2c([nH]c3ccccc23)C1=O | 215 to 218
COc1ccc(NC(=O)Nc2ccccc2)cc1 | 196 to 198
CONC(=O)COc1cc2c(cc1C#Cc1ccccc1)NC(=O)CC(c1cccc(C#N)c1)=N2 | > 250
O=C(Nc1ccccc1O)c1ccc(CS(=O)(=O)c2ccc(O)cc2)cc1 | 250
OCc1c(F)ccc(-c2ccc3nc(-c4ccc(Cl)cc4)cn3c2)c1F | 214 to 216
CC12CCC(=O)C=C1CCC1C2CCC2(C)C(CO)CCC12 (configuration not stated) | 151
O=C(O)[C@H](CC1CCCCC1)n1cccc1 | 78 to 80
CCCCNC(=O)NS(=O)(=O)c1cc(C(F)(F)F)ccc1S(=O)(=O)N(C)C | 128 to 130
COC(=O)NCCCn1c(-c2ccc(OC)cc2)csc1=Nc1ccccc1 | 106 to 108
CC(CC(=O)O)CC(=O)Nc1ccc(Cl)cc1 (configuration not stated) | 116 to 118
CC1(C)COc2ccc(C[C@@H](NC(=O)c3cccc4c(Cl)cccc34)[C@@H](O)c3cccc(Cl)c3)cc21 (racemic) | 191 to 192
CNC(=O)C(Br)CCBr (configuration not stated) | 48 to 49
C#CC[C@H](c1nc2cc(Cl)ccc2c(=O)n1Nc1ccccc1)N(CCCN)C(=O)c1cc(F)cc(F)c1F | 168 to 170
C[C@@H](O)[C@H](CN)C(=O)O | 120 to 123
CCN(CC)CCn1cc(C(=O)NCc2ccc(Cl)cc2)c(=O)c2cc(CCCO)sc21 | 111 to 114
O=[N+]([O-])c1ccc(-c2ccc(-c3ccc([N+](=O)[O-])cc3C(F)(F)F)o2)c(C(F)(F)F)c1 | 158 to 159
CC(C)n1nc(-c2sc(NC(=O)c3ccc(CNCCCN(C)C)cc3)nc2-c2ccccc2)ccc1=O | 108 to 110
Cc1csc2c1c(C(=O)c1ccc(Cl)cc1)cn2C(C)C(=O)O (configuration not stated) | 149
O=C(Nc1ccc(Cl)c(Cl)c1)OCCCC(=O)c1ccccc1 | 141 to 143
c1ccc(-c2nn3c(c2-c2cncc4cccnc24)CCC3)nc1 | 180 to 184
Cc1cc(C)c(Nc2nc(C)ccc2S(=O)(=O)c2ccc(OCc3ccc(C#N)cc3)cc2)c(C)c1 | 208 to 210
CCOC(=O)c1c(C)nc(NCCCN(C)C)c2nccnc12 | 55 to 57
CCN(CC)CCNc1cc(Cl)cc(NCCN(CC)CC)c1[N+](=O)[O-] | 90

Compound | melting point [°C]
O=C(O)c1csc2ccc(OS(=O)(=O)c3ccccc3)cc12 | 202 to 203
CC1CCc2c(-n3cccc3)ccc3c(=O)c(C(=O)O)cn1c23 (configuration not stated) | 303 to 305
Cc1ccc(CN2Cc3cncn3C(c3ccc(C#N)cc3)C2=O)cc1 (configuration not stated) | 168 to 170
O=S(=O)(c1ccc(Cl)c2ccccc12)N1CC2CCC(CC2)C1 | 134 to 137
CCCOc1nc2ccsc2c(=O)n1CCC | 42 to 45
CCOCCc1c(N=[N+]=[N-])nc(NC(=O)NCC(=O)OCC)nc1-c1ccccc1 | 130
CCCN(CCC)C(=O)C(CO)Nc1nc(-c2ccccc2)nc(C)c1C (configuration not stated) | 132 to 133
CCCCCCc1cc2c(s1)NC(=O)CN=C2c1ccccc1OC | 130 to 132
NC(=O)/C=C1\CCc2c(F)cc(F)cc21 | 178 to 180
N#CC(=Cc1ccc(Cl)cc1Cl)n1cncn1 | 156 to 160
O=C1CN(c2cccc(Cl)c2)NC(=O)N1 | 224 to 226
O=C(O)/C=C/c1cn(-c2cc(C(F)(F)F)cc(C(F)(F)F)c2)nc1-c1cccc(Cl)c1 | 217 to 221
O=C(Nc1cnccn1)Nc1cccc2c1C1CC3(CCN1C2=O)SCCS3 (configuration not stated) | 236
COc1ccc(-c2c(Cl)c(CN3C(=O)CCC3=O)nc3sc4c(c23)CC(C)(C)C(=O)C4(C)C)cc1 | 214 to 216
O=c1c2c(Cl)cccc2nc(C(S)c2ncnc3[nH]cnc23)n1-c1ccccc1Cl (configuration not stated) | 234
O=C1O[C@@H](CO)CN1c1ccc(Br)cn1 | 123 to 124
CC(C)C[C@H](NC(=O)Nc1cccc2ccccc12)C(=O)NC1CCOC1O (some centres not stated) | 177 to 178
O=C1CC(C(=O)NC(c2ccccc2)c2ccc(Cl)cc2)Oc2ccc(F)cc21 (single isomer, unassigned; (+)) | 167
Cc1cc(CNC2CC2)cc(C)c1Oc1ccc([N+](=O)[O-])c(Nc2ccc(C#N)cc2)n1 | 175 to 177
N#CNC(=N)Nc1cc(Cl)cc(Cl)c1 | 196 to 198
COc1ccc(-c2[nH]nc3c2C(=O)c2c(NC(=O)Nc4ccccc4)cccc2-3)cc1 | > 300
CCn1cc(C(=O)O)c(=O)c2cc(F)c(N3CCN(c4ncccn4)C(C)C3)c(OC(F)F)c21 (configuration not stated) | 219 to 221
Nc1nc2ccc3ccc(CNc4ccc([N+](=O)[O-])cc4)cc3c2c(=O)[nH]1 | > 230
O=C(NCCN1CCC2(CC1)C(=O)NCN2c1ccccc1)c1ccc(Cl)cc1 | 201
COc1cc(OC)nc(Oc2ccccc2C=NO)n1 | 125 to 128

Compound | melting point [°C]
O=C(c1ccc(-c2ccc(NC(=S)Nc3ccccc3)cc2)o1)N1CCN2CCC1CC2 | 171 to 175
COCCNCC(O)c1ccccc1 (configuration not stated) | 77 to 80
CCn1cc(C(=O)O)c(=O)c2cc(F)c(N3CCNC(c4ccoc4)C3)cc21 (configuration not stated) | 202 to 204
Nc1cc(-n2nnn(CCCF)c2=O)c(F)cc1Cl | 84
O=C(NCc1ccc(F)cc1-n1cncn1)c1nc2n(c(=O)c1O)CCN2CCO | 220 to 222
CC(C)NC(=S)NS(=O)(=O)c1ccc(S(C)(=O)=O)cc1N | 151 to 153
COc1cccc(CCN2C(=O)c3cc(Cl)c(Cl)cc3C2(O)c2ccc(F)cc2)c1 (configuration not stated) | 169
CCOC(=O)c1ccc(OCCCCl)cc1 | 24 to 25
O=C(c1cc(Cl)ccc1NC(c1ccccc1)(c1ccccc1)c1ccccc1)C(F)(F)F | 165 to 167
COc1cc(OC)c(-c2cc3ccccc3[nH]2)cc1C=CC(=O)c1ccc(S(=O)(=O)N(C)C)cc1 | 158 to 162
CN1C(=O)C(c2ccc(OC(F)F)cc2)(c2ccc(F)c(CCCC#N)c2)N=C1N (configuration not stated) | 65 to 70
COc1cc(CN2N=C(c3ccc(OC)c(OC)c3)[C@@H]3CCCC[C@@H]3C2=O)cc(OC)c1 (relative stereo) | 114 to 117
CCc1nc2c(N)nc3ccc(OCc4ccccc4)cc3c2n1CCCCNC(=O)c1ccccc1 | 226 to 230
COc1ccc(Cn2cnc(N)c3nc(C(C)C)nc2-3)cc1OC1CCCC1 | 190 to 193
Nc1nccc(-c2ccc(OCC(O)CN3CCN(c4cccc(Cl)c4)CC3)cc2)n1 (configuration not stated) | 197 to 198
O=c1nc(N2CCCc3c(Br)cccc32)sc2ncccc12 | 173 to 174
Nc1ccc2c(c1)C(=O)c1cc(N)ccc1C2=O | 337 to 338
O=c1c2ccccc2ncn1C1CCN(CCC(CC(F)(F)F)c2ccccc2)CC1 (configuration not stated) | 128 to 129
COc1ccccc1N1CCN(CCCOc2ccc(-c3nnco3)cc2)CC1 | 139 to 140
CNC(=O)NCCN1CCC(Nc2nc3ccccc3n2Cc2cnc(C)o2)CC1 | 203
Cc1oncc1C(=O)N1CCC(C)CC1 | 44 to 45
COc1cc(C(=O)O)cc2c(C)c(C)oc12 | 229 to 231
CS(=O)(=O)c1ccc(C2=C(c3ccc(C#N)cc3)CCC2)cc1 | 163 to 164
COC(=O)c1cccc(Nc2nc(-c3cccnc3)nc3ccccc23)c1 | 228 to 245
OC1CSC(Oc2ccccc2-n2ccc3ccccc32)C(O)C1O (configuration not stated) | 70 to 73

Compound | melting point [°C]
CN(C)c1ccc(C(=O)Nc2nc(-c3ccco3)c(C(=O)C3CCOCC3)s2)cc1 | 238 to 240
O=C(O)CC=C(c1ccccc1)c1ccc(F)cc1 | 98 to 100
O=C1NC(=Cc2c[nH]c3ccccc23)C(=O)N1Cc1cc(C(F)(F)F)cc(C(F)(F)F)c1 | 151 to 153
Cn1c(=O)n(-c2cc(Cl)ccc2O)c2ccc(F)cc21 | 247 to 250
COc1ccc(N2C(=O)[C@H](NC(=O)OC(C)(C)C)[C@@H]2CON2C(=O)c3ccccc3C2=O)cc1 (relative stereo) | 188 to 189
CNC(=NCCS(=O)Cc1nccs1)NC#N (configuration not stated) | 110
COc1cc2c(cc1S(=O)(=O)c1ccc(F)cc1)CCN(C)CC2 | 129 to 130
CCCC(C)c1nn(-c2ccc(C(F)(F)F)cn2)cc1CCCO (configuration not stated) | 72 to 73
O=C1c2ccccc2C(=O)N1CCOc1cc(F)ccc1O | 172
C=CCN(C(=O)OC(C)(C)C)c1cc(OC)c(-c2ccc(C[C@H](NC(=O)c3c(Cl)cccc3Cl)C(=O)O)cc2)c(OC)c1 | 138 to 139
COc1ccccc1-c1cnc(-c2ccccc2)[nH]c1=O | 245 to 247
NC=C(C=O)c1cccc(C(F)(F)F)c1 | 63 to 70
CCOC(=O)C(C#N)=CNc1ccc(C=C(C#N)C(=O)OCC)o1 | 206 to 208
Cc1cccc(COc2cccc(OCc3coc(-c4cccc(F)c4)n3)c2)c1C(=O)O | 152 to 154
Clc1ccccc1N1CCN(Cc2nc3ccccc3[nH]2)CC1 | 245 to 246
CCCN(C)CC(C)N1c2ccccc2Sc2ccc(C(N)=S)cc21 (racemic) | 204
COc1ccc(-c2ccnc(N3CCN(c4c(C)c(C)c5c(c4C)CC(C)(C)O5)CC3)n2)cc1 | 156 to 159
O=C(O)C[C@H](NC(=O)CNC(=O)c1csc(NC(=O)NCc2ccccc2)n1)C(=O)Nc1ccccc1C(=O)O | 192
COC(=O)CCc1cc2ccccc2n1S(=O)(=O)c1ccccc1 | 95 to 99
CC1=C(C#N)C(c2cncc3ncc(-c4ccccc4)cc23)C(C(=O)OC(C)C)=C(C)N1 (configuration not stated) | 192
CCC(=O)NC[C@H]1CN(c2ccc(C3C=CS(=O)(=O)CC3)cc2)C(=O)O1 (some centres not stated) | 144 to 147
COc1cccc(C(=O)N2c3ccccc3C(O)CC2C)c1 (configuration not stated) | 148 to 149
